The source of these data is patent US5530161A, “Hydroxamic acid based collagenase inhibitors” (priority 1994, dated 1996).

What is called IC50 is the concentration that gives 50% inhibition. Higher therefore signals a need for much substance.

One assay has as its target T1, collagenase (Homo sapiens, UniProt P03956).
T1 sequence (P03956 100-469): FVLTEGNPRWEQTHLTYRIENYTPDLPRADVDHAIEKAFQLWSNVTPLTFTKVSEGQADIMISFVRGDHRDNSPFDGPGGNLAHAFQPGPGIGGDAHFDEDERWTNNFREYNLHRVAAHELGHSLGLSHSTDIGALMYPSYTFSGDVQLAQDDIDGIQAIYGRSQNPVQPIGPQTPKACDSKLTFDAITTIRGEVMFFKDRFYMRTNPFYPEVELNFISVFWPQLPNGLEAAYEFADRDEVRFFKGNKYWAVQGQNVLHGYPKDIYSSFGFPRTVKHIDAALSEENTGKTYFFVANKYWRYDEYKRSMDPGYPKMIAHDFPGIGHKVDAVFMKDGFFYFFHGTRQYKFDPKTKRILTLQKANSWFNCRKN
To be noted: for IC50: collagenase, 37°, 16 hours, pH 7.5, 14C collagen.

Another assay has as its target stromelysin (Homo sapiens, UniProt P08254). In words: Stromelysin inhibition activity (14C-acetylated casein digestion, Cawston et al). It is filed as biochemical.

Chain of stromelysin (P08254 100-477): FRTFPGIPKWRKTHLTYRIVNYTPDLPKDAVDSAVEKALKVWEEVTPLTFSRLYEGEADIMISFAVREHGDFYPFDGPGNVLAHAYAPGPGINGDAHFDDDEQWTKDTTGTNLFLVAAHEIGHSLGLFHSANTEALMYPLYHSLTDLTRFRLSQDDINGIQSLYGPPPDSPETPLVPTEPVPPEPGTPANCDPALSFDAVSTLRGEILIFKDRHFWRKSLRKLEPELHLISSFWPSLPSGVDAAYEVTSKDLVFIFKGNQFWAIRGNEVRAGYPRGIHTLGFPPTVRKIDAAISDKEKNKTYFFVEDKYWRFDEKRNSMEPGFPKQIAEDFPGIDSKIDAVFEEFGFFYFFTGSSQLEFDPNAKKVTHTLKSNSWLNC
Excerpt for collagenase: The collagen was acetylated ^14 C collagen prepared by the method of Cawston and Murphy (Methods in Enzymology, 80, 711, 1981), hereby incorporated by reference. The samples were centrifuged to sediment undigested collagen and an aliquot of the radioactive supernatant removed for assay on a scintillation counter as a measure of hydrolysis.

For `CNC(=O)[C@H](Cc1ccccc1)NC(=O)[C@H](CC(C)C)[C@H](CSc1cccs1)C(=O)NO` [Example 2, [4-(N-Hydroxyamino)-2R-isobutyl-3S-(thienylthiomethyl)succinyl]-L-phenylalanine-N-methylamide], the “collagenase-inhibiting activity (in words)” value on collagenase (qualitative statement) is given as “good”. In addition, the “protoglycanase-inhibiting activity (in words)” value on stromelysin (qualitative statement, protoglycanase = stromelysin (b9)) is given as “good”.

`CNC(=O)[C@H](Cc1ccccc1)NC(=O)[C@H](CC(C)C)[C@H](CS)C(=O)NO` [Example 5, [4-(N-Hydroxyamino)-2R-isobutyl-3S-(mercaptomethyl)succinyl]-L-phenylalanine-N-methylamide] registered a 50% inhibitory concentration (IC50) on collagenase of 3 nM. This lies in the single-digit nanomolar range.

As for `CNC(=O)[C@H](Cc1ccccc1)NC(=O)[C@H](CC(C)C)[C@H](CSc1ccccc1)C(=O)NO` [Example 1, [4-(N-Hydroxyamino)-2R-isobutyl-3S-(phenylthiomethyl)-succinyl]-L-phenylalanine-N-methylamide], the IC50 against collagenase was 20 nM; at stromelysin (stromelysin, 37°, 16 hours, pH 7.5, 14C acetylated casein), 10 nM.
